Laboratory results as given in US6410585B1, “Inhibitors of protein tyrosine phosphatase” (priority 1997, dated 2002).

Molecular target: T1, human PTP1B (Homo sapiens, UniProt P18031)
T1 construct: human PTP1B (amino acid residues 1-321); made in house; host or cells: E. coli BL21(DE3)
T1 sequence (P18031 1-321): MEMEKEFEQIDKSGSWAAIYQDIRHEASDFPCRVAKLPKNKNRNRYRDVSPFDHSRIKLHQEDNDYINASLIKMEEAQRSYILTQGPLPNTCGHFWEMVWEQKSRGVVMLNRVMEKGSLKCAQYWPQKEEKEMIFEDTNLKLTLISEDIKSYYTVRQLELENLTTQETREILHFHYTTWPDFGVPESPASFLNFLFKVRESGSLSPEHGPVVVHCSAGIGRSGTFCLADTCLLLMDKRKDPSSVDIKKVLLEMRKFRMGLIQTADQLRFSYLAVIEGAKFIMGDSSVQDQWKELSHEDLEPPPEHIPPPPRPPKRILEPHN
Assay: PTP1B assay, pNPP hydrolysis, assayed exactly as for PTP1
Format: biochemical
Conditions: for inhibition at 1 µM / inhibition at 10 µM / inhibition at 100 µM: Table 2, read-out: PTP1B Inhib PTP1B. % Inhib; for PTP1B Inhib PTP1B. % Inhib: Table 2
Source text: The equivalent construct of human PTP1B (amino acid residues 1-321) (cloned from a human placental library), without the GST tag and thrombin cleavage site, was inserted into a pMB replicon and transformed into E. coli BL21(DE3), a strain containing a chromosomal copy of the gene for T7 RNA polymerase under control of a lacUV5 promoter. Expression of PTP1B was induced with isopropyl thiogalactose and the soluble protein was purified by ion exchange, hydrophobic interaction and gel exclusion chromatography for use in the assay to identify PTP inhibitors.
PTP1 activity is measured using either p-nitrophenol phosphate (pNPP) or a triphosphopeptide (that matches residues 1142 through 1153 of the β-subunit and the insulin receptor) as substrate in a 96-well microtiter plate format. An assay pH of 7.2 is used for standard assays (measured 405=9800 at pH 7.2).
Human PTP1B, which is highly homologous to rat PTP1, was assayed exactly as described above for PTP1.
Standard assays are conducted at room temperature in a total volume of 0.2 ml that contains Hepes buffer (50 mM, pH 7.2), NaCl (50 mM), EDTA (1 mM), DTT (1 mM), bovine serum albumin (1 mg/ml), pNPP (1 mM) and PTP1 (35 ng/ml). Compounds (2 μl of 10 mM solutions) are pipetted into wells of microtiter plates followed by 198 μl of premixed reaction mix (with PTP1 and pNPP added immediately before use). The rate of change in A405 is recorded for 60 min. Two wells on each plate contain DMSO controls and two wells contain sodium orthovanadate (1 mM) which inhibits PTP1-catalyzed hydrolysis of pNPP completely. Data are expressed as percent inhibition relative to the average of the DMSO controls measured on the same microtiter plate.

| Structure (SMILES) | inhibition at 1 µM (Conc 1 uM) | inhibition at 10 µM (Conc 10 uM) | inhibition at 100 µM (Conc 100 uM) | PTP1B Inhib PTP1B. % Inhib (Conc 100 uM) | PTP1B Inhib PTP1B. % Inhib (Conc 1 uM) | PTP1B Inhib PTP1B. % Inhib (Conc 10 uM) |
| --- | --- | --- | --- | --- | --- | --- |
| CCCCCNC(=O)C(Cc1ccc(OC(COO)COO)cc1)NC(=O)C(COCc1ccccc1)NC(=O)OC(C)(C)C (centres unmarked) | 3% | 19% | 71% |  |  |  |
| CCCCCNC(=O)C(Cc1ccc(OC(COO)COO)cc1)NC(=O)C(CC(N)=O)NC(=O)OC(C)(C)C (centres unmarked) | 9% | 40% | 85% |  |  |  |
| CCCCCNC(=O)C(Cc1ccc(OC(COO)COO)cc1)NC(=O)CNC(=O)OCc1ccccc1 (centres unmarked) | 6% | 19% | 66% |  |  |  |
| CCCCCNC(=O)C(Cc1ccc(OC(COO)COO)cc1)NC(=O)C(Cc1ccc(O)cc1)NC(=O)OC(C)(C)C (centres unmarked) | 10% | 50% | 90% |  |  |  |
| CCCCCNC(=O)[C@H](Cc1ccc(OCC(=O)O)c(-c2nn[nH]n2)c1)NC(=O)[C@H](Cc1ccccc1)NC(=O)OC(C)(C)C |  |  | 87% | 97% |  |  |
| CCCCCNC(=O)C(Cc1ccc(OCCOO)c(COO)c1)NC(=O)C(Cc1ccccc1)NC(=O)Cc1ccc(O)cc1 (centres unmarked) | 46% | 88% | 98% |  |  |  |
| CCCCCNC(=O)C(Cc1ccc(OCCOO)c(COO)c1)NC(=O)C(Cc1ccccc1)NC(=O)Cc1ccc(C)cc1 (centres unmarked) | 39% | 85% | 98% |  |  |  |
| CCCCCNC(=O)C(Cc1ccc(OCCOO)c(COO)c1)NC(=O)C(Cc1ccccc1)NC(=O)Cc1ccc(C(F)(F)F)cc1 (centres unmarked) | 39% | 85% | 98% |  |  |  |
| CCCCCNC(=O)C(Cc1ccc(OCCOO)c(COO)c1)NC(=O)C(Cc1ccccc1)NC(=O)Cc1ccc(OC)cc1 (centres unmarked) | 46% | 87% | 97% |  |  |  |
| CCCCCNC(=O)C(Cc1ccc(OCC(=O)O)c(OCC(=O)O)c1)NC(=O)C(Cc1ccccc1)NC(=O)OC(C)(C)C (centres unmarked) | 1% | 5% | 25% |  |  |  |
| CCCCCNC(=O)C(Cc1ccc(OCCOO)c(COO)c1)NC(=O)C(C)NC(=O)OC(C)(C)C (centres unmarked) | 8% | 43% | 86% |  |  |  |
| CCCCCNC(=O)C(Cc1ccc(OCCOO)c(COO)c1)NC(=O)C(Cc1ccccc1)NC(=O)CCc1ccccc1 (centres unmarked) | 22% | 74% | 95% |  |  |  |
| CCCCCNC(=O)[C@H](Cc1ccc(OCC(=O)O)c(C(=O)O)c1)NC(=O)C(Cc1ccccc1)N1CCCC1=O (some centres unmarked) | 24% | 71% | 94% |  |  |  |
| CCCCCNC(=O)[C@H](Cc1ccc(OC(F)C(=O)O)c(C(=O)O)c1)NC(=O)[C@H](Cc1ccccc1)NC(=O)OC(C)(C)C (some centres unmarked) | 34% | 76% | 95% |  |  |  |
| CCCCCNC(=O)C(Cc1ccc(OCCOO)c(COO)c1)NC(=O)C(Cc1ccccc1)NC(=O)OC(C)(C)C (centres unmarked) [drawing 189] |  |  |  | 69% | 2% | 19% |
| CC(C)(C)OC(=O)N[C@@H](Cc1ccccc1)C(=O)N[C@@H](Cc1ccc(OCC(=O)O)c(C(=O)O)c1)C(=O)NCCCCc1ccccc1 [drawing 221] | 64% | 93% | 98% |  |  |  |
| CC(C)(C)OC(=O)N[C@@H](Cc1ccccc1)C(=O)N[C@H](CO)Cc1ccc(OCC(=O)O)c(C(=O)O)c1 [drawing 222] | 5% | 31% | 80% |  |  |  |
